Test results taken from ChEMBL document CHEMBL2176907, “Identification of multiple 5-HT₄ partial agonist clinical candidates for the treatment of Alzheimer's disease” (J Med Chem, 2012).
Each block holds one compound with its values, some of them ahead of it. Calls of active or inactive are those of the source. No cut-off for these calls is given here.

Experiments:
[1] = target: T1, 5-hydroxytryptamine receptor 4 (Homo sapiens, UniProt Q13639); experiment: Agonist activity at human 5HT4D receptor expressed in HEK293 cells assessed as cAMP production after 30 mins by HTRF assay relative to 5HT; format: functional, cell-based
T1 sequence (Q13639 whole entry): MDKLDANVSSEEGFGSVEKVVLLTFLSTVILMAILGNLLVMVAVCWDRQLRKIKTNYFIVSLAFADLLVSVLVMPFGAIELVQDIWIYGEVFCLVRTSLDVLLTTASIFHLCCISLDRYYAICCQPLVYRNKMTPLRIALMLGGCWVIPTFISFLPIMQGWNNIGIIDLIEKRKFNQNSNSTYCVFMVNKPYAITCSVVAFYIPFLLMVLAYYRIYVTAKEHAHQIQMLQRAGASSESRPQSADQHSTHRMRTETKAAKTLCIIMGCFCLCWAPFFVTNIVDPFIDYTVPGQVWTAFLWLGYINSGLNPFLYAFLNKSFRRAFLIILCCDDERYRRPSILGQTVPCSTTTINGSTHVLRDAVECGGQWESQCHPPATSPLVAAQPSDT

[2] = target: T1, 5-hydroxytryptamine receptor 4; experiment: biochemical
Description: Displacement of [3H]GR113808 from human 5HT4D receptor expressed in HEK293 cells after 30 mins by liquid scintillation counting

[3] = target: T1, 5-hydroxytryptamine receptor 4; experiment: Agonist activity at human 5HT4D receptor expressed in HEK293 cells assessed as cAMP production after 30 mins by HTRF assay; format: functional, cell-based
CYP2D6 = CYP2D6 (Homo sapiens, UniProt P10635); experiment: Inhibition of CYP2D6 in human liver microsomes using dextromethorphan as substrate at 3 uM; format: ADME, Microsome; details: probe dextromethorphan
CYP2D6, sequence (P10635 whole entry): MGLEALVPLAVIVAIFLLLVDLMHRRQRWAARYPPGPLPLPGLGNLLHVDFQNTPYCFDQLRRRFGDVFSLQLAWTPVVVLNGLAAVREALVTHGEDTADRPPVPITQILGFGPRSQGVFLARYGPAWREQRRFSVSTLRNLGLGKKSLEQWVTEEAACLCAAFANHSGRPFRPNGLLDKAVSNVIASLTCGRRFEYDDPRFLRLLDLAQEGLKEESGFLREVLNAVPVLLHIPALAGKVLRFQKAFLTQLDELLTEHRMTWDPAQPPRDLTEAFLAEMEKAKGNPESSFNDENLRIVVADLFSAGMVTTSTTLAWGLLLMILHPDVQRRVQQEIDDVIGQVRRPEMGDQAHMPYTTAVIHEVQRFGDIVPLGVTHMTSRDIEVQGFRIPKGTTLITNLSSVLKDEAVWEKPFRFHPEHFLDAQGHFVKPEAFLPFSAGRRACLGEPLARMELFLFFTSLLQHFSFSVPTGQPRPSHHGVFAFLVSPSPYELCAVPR

[4] = Apparent permeability from apical to basal side of RRCK cells at 2 uM after 2 hrs by transwell assay; format: ADME, cell-based, Canis lupus familiaris, MDCKII-LE; details: dog, MDCK
[5] = Intrinsic clearance in human liver microsomes; format: ADME, Microsome; details: read-out: CLH
MDR1 = experiment: in vitro; details: dog, MDCK-MDR1
Description: Efflux ratio of permeability from basal to apical to apical to basal side of MDCK cells expressing MDR1 at 2 uM after 5 hrs by transwell assay

[6] = target: T1, 5-hydroxytryptamine receptor 4; experiment: biochemical; remark: listed apart in the source
Description: Displacement of [3H]GR113808 from human 5HT4A receptor expressed in HEK293 cells after 30 mins by liquid scintillation counting

[7] = target: T2, 5-hydroxytryptamine receptor 4 (Rattus norvegicus, UniProt Q62758)
T2 sequence (Q62758 whole entry): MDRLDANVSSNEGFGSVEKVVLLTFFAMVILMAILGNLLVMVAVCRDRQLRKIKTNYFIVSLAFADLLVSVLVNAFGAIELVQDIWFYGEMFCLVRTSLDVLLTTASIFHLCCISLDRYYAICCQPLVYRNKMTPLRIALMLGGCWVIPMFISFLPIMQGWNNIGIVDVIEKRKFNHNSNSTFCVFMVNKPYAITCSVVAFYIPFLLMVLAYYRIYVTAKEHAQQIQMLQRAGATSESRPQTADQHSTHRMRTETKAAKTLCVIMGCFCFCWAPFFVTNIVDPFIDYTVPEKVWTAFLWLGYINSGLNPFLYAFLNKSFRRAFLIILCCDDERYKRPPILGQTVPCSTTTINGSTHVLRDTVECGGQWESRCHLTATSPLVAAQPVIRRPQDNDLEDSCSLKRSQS
Description: Agonist activity at rat 5HT4L receptor expressed in HEK293 cells assessed as increase in cAMP production after 30 mins by HTRF assay

[8] = Clearance in iv dosed rat; format: ADME, organism-based; details: in vivo
Canis familiaris [9] = experiment: Cardiotoxicity in beagle dog assessed as increase in systolic blood pressure at 0.1 mg/kg administered as repeated dose for 7 days measured up to 1 month; format: toxicity, organism-based, Canis lupus familiaris, Artery; design: dose 0.1 mg/kg; details: in vivo, 168 h
[10] = Oral bioavailability in rat; format: ADME, organism-based; details: in vivo
Rattus norvegicus [11] = experiment: Gastrointestinal toxicity in female Sprague-Dawley rat assessed as reduction in body weight at 30 mg/kg administered as repeated dose for 7 days measured up to 14 days; format: organism-based; design: dose 30 mg/kg; details: in vivo
Brain = experiment: Free AUC (0 to 4 hrs) in sc dosed Sprague-Dawley rat brain by LC-MS/MS analysis; format: ADME, organism-based; details: in vivo
Rattus norvegicus [12] = experiment: Displacement of [3H]SB207145 from 5HT4 receptor in sc dosed Sprague-Dawley rat striatal membrane incubated for 45 mins prior to [3H]SB207145-adminsitration measured after 15 mins; format: functional, organism-based; details: Striatum
[13] = target: T1, 5-hydroxytryptamine receptor 4
Description: Agonist activity at human 5HT4E receptor expressed in HEK293 cells assessed as increase in cAMP production after 30 mins by HTRF assay

[14] = target: T2, 5-hydroxytryptamine receptor 4; remark: listed apart in the source
Description: Agonist activity at rat 5HT4E receptor expressed in HEK293 cells assessed as increase in cAMP production after 30 mins by HTRF assay

Plasma = experiment: Free AUC (0 to 4 hrs) in sc dosed Sprague-Dawley rat plasma by LC-MS/MS analysis; format: ADME, organism-based; details: in vivo
Canis familiaris [15] = experiment: Gastrointestinal toxicity in beagle dog assessed as emesis at 20 mg/kg administered as repeated dose for 7 days measured up to 14 days; format: organism-based, Canis lupus familiaris; design: dose 20 mg/kg; details: in vivo
[16] = target: T1, 5-hydroxytryptamine receptor 4; remark: listed apart in the source
Description: Agonist activity at human 5HT4A receptor expressed in HEK293 cells assessed as increase in cAMP production after 30 mins by HTRF assay

[17] = target: T1, 5-hydroxytryptamine receptor 4; experiment: biochemical; remark: listed apart in the source
Description: Displacement of [3H]GR113808 from human 5HT4E receptor expressed in CHO cells after 30 mins by liquid scintillation counting

Rattus norvegicus [18] = experiment: Gastrointestinal toxicity in male Sprague-Dawley rat assessed as mucosal injury at 100 mg/kg administered as repeated dose for 7 days measured up to 14 days; format: organism-based; design: dose 100 mg/kg; details: in vivo
Rattus norvegicus [19] = experiment: Procognitive activity in Sprague-Dawley rat assessed as increase in acetylcholine level in prefrontal cortex at 5 mg/kg, sc after 3 hrs by brain microdialysis relative to control; format: functional, organism-based; design: dose 5 mg/kg
[20] = Intrinsic clearance in dog liver microsomes; format: ADME, Canis lupus familiaris, Microsome; details: read-out: CLH
[21] = Ratio of free drug concentration in brain to free drug concentration in plasma in sc dosed Sprague-Dawley rat; format: ADME, organism-based; details: read-out: K(p,uu,brain)
[22] = target: T2, 5-hydroxytryptamine receptor 4; remark: listed apart in the source
Description: Displacement of [3H]GR113808 from 5HT4 receptor in rat striatal membrane after 30 mins by liquid scintillation counting

[23] = Oral bioavailability in dog; format: ADME, organism-based, Canis lupus familiaris; details: in vivo
Canis familiaris [24] = experiment: Neurotoxicity in beagle dog assessed as convulsions at 30 mg/kg administered as repeated dose for 7 days measured up to 14 days; format: toxicity, organism-based, Canis lupus familiaris; design: dose 30 mg/kg; details: in vivo
[25] = target: T1, 5-hydroxytryptamine receptor 4; remark: listed apart in the source
Description: Agonist activity at human 5HT4B receptor expressed in HEK293 cells assessed as increase in cAMP production after 30 mins by HTRF assay

[26] = target: T2, 5-hydroxytryptamine receptor 4; remark: listed apart in the source
Description: Agonist activity at rat 5HT4S receptor expressed in HEK293 cells assessed as increase in cAMP production after 30 mins by HTRF assay

[27] = Clearance in iv dosed dog; format: ADME, organism-based, Canis lupus familiaris; details: in vivo
Rattus norvegicus [28] = experiment: Receptor occupancy of 5HT4 receptor in Sprague-Dawley rat brain at 5 mg/kg, sc up to 4 hrs; format: functional; details: route subcutaneous
Rattus norvegicus [29] = experiment: Gastrointestinal toxicity in Sprague-Dawley rat assessed as decrease in food intake administered as repeated dose for 7 days measured up to 14 days; format: organism-based; details: in vivo
[30] = target: 5-hydroxytryptamine receptor 4 (Rattus norvegicus) (UniProt Q62758); experiment: Agonist activity at 5HT4 receptor in rat oesophagus assessed as reversal of carbamylcholine-induced contraction at 10 uM incubated at 7 mins post carbamylcholine-challenge measured after 30 mins relative to 5HT; format: functional
5-hydroxytryptamine receptor 4 (Rattus norvegicus), sequence (Q62758 whole entry): as above

Rattus norvegicus [31] = experiment: Gastrointestinal toxicity in male Sprague-Dawley rat assessed as reduction in body weight at 100 mg/kg administered as repeated dose for 7 days measured up to 14 days; format: organism-based; design: dose 100 mg/kg; details: in vivo
Rattus norvegicus [32] = experiment: Gastrointestinal toxicity in female Sprague-Dawley rat assessed as mucosal injury at 30 mg/kg administered as repeated dose for 7 days measured up to 14 days; format: organism-based; design: dose 30 mg/kg; details: in vivo
[33] = Intrinsic clearance in rat liver microsomes; format: ADME, Microsome; details: read-out: CLH
[34] = target: T1, 5-hydroxytryptamine receptor 4; experiment: biochemical; remark: listed apart in the source
Description: Displacement of [3H]GR113808 from human 5HT4B receptor expressed in HEK293 cells after 30 mins by liquid scintillation counting

Canis familiaris [35] = experiment: Gastrointestinal toxicity in beagle dog assessed as decrease in food intake administered as repeated dose for 7 days measured up to 14 days; format: organism-based, Canis lupus familiaris; details: in vivo

Emax [1]: 95% | Ki [2]: 5.2 nM | EC50 [3]: 6.3 nM | inhibition at 3 µM (CYP2D6): 93%
SMILES: CCCCN1CCC(COc2noc3cccc(OCC(C)(C)C)c23)CC1

Emax [1]: 28% | Papp A→B at 2 h, 2 µM [4]: 15 ×10⁻⁶ cm/s | CLint scaled [5]: 56 mL/min/kg | Ki [2]: 0.5 nM | EC50 [3]: 0.4 nM | inhibition at 3 µM (CYP2D6): 37% | efflux ratio at 5 h, 2 µM (MDR1): 2.2
SMILES: O[C@@H]1CC[C@@H](Oc2cccc3onc(OCC4CCN(CC5(O)CCOCC5)CC4)c23)C1

Emax [1]: 50% | Papp A→B at 2 h, 2 µM [4]: 35 ×10⁻⁶ cm/s | CLint scaled [5]: 38 mL/min/kg | Ki [2]: 3.6 nM | EC50 [3]: 1.7 nM | inhibition at 3 µM (CYP2D6): 21% | efflux ratio at 5 h, 2 µM (MDR1): 1.6
SMILES: CC(C)(O)COc1cccc2onc(OCC3CCN(CC4(O)CCOCC4)CC3)c12

Emax [1]: 85% | Papp A→B at 2 h, 2 µM [4]: 3.8 ×10⁻⁶ cm/s | CLint scaled [5]: 72 mL/min/kg | Ki [2]: 0.36 nM | EC50 [3]: 0.98 nM | inhibition at 3 µM (CYP2D6): 54%
SMILES: CC(C)COc1cccc2onc(OCC3CCN(CC4(O)CCOCC4)CC3)c12

Emax [1]: 86% | Papp A→B at 2 h, 2 µM [4]: 21.9 ×10⁻⁶ cm/s | Ki [6]: 4.4 nM | EC50 [7]: 0.96 nM | clearance [8]: 12.6 mL/min/kg | bioavailability [10]: 40% | fAUC (Brain): 0.0443 µM·h | Activity (Rattus norvegicus [12]): Dose-dependent effect | EC50 [13]: 0.98 nM | EC50 [14]: 1.59 nM | fAUC (Plasma): 0.0276 µM·h | CLint scaled [5]: 24.3 mL/min/kg | EC50 [16]: 0.38 nM | Ki [17]: 4.9 nM | Ki [2]: 1.7 nM | CLint scaled [20]: < 5.6 mL/min/kg | Kp uu [21]: 1.6 | EC50 [3]: 0.9 nM | efflux ratio at 5 h, 2 µM (MDR1): 1.41 | Ki [22]: 1.5 nM | bioavailability [23]: 100% | EC50 [25]: 1.2 nM | EC50 [26]: 0.9 nM | clearance [27]: 40 mL/min/kg | Activity [30]: 70% | CLint scaled [33]: 45.2 mL/min/kg | Ki [34]: 5.5 nM
SMILES: CC(C)n1c(=O)n(C(=O)NCC2CCN(CC3(O)CCOCC3)CC2)c2cc(F)ccc21
Activity (Canis familiaris [9]): Toxic | Activity (Rattus norvegicus [11]): Toxic | Activity (Canis familiaris [15]): Toxic | Activity (Rattus norvegicus [18]): Toxic | Activity (Rattus norvegicus [19]): Active | Activity (Canis familiaris [24]): Toxic | Occ (Rattus norvegicus [28]): >90% | Activity (Rattus norvegicus [29]): Toxic | Activity (Rattus norvegicus [31]): Toxic | Activity (Rattus norvegicus [32]): Toxic | Activity (Canis familiaris [35]): Toxic
